Columns and labels:
[1] = Stability of crystalline polymorphic forms of Zopiclone (conversion to hydrate form); conditions: conversion to more stable hydrate form of Zopiclone
[2] = background statement; Form A gets converted into dihydrate Form B; cited from earlier work
[3] = Hygroscopicity on exposure to air; format: physicochemical; conditions: does not capture moisture even on exposure to air

CN1CCN(C(=O)OC2c3nccnc3C(=O)N2c2ccc(Cl)cn2)CC1 (centres unmarked) [Form C, Zopiclone]
thermodynamic stability of the crystalline form [1]: thermodynamically unstable

CN1CCN(C(=O)OC2c3nccnc3C(=O)N2c2ccc(Cl)cn2)CC1 (centres unmarked) [Zopiclone Form A, Zopiclone]
stability of the known crystalline form [2]: unstable

CN1CCN(C(=O)OC2c3nccnc3C(=O)N2c2ccc(Cl)cn2)CC1 (centres unmarked) [Zopiclone Form D, Zopiclone]
hygroscopicity [3]: non-hygroscopic
thermodynamic stability of the crystalline form [1]: stable

CN1CCN(C(=O)OC2c3nccnc3C(=O)N2c2ccc(Cl)cn2)CC1 (centres unmarked) [Form B, Zopiclone]
stability of the known crystalline form [2]: thermodynamically stable
